Measured values published in patent publication US6455575B2, “Phosphonooxymethyl ethers of taxane derivatives” (Bristol-Myers Squibb Company, priority 1992, dated 2002).

Legend:
[1] = tested on: M109 lung carcinoma; assay: In vivo antitumor activity, subcutaneous M109 model; set-up: species or system mice; details: for T-C / max. % T/C: once daily x5 from Day 4
[2] = tested on: A2780/cDDP human ovarian carcinoma resistant to cisplatin; assay: A2780/cDDP human tumor xenograft model; format: in vivo; details: athymic mice, every other day x5
[3] = tested on: HCT-116 human colon carcinoma; assay: HCT-116 human tumor xenograft model; format: in vivo; details: for cures (tumor-free on Day 80 post tumor implant): athymic mice, every other day x5
[4] = tested on: HCT-116 human colon carcinoma cells; assay: In vitro cytotoxicity, XTT assay; format: cell-based; details: 72 h incubation, Examples 1 and 4 as free acid, example 3 as sodium salt
[5] = tested on: HCT-116/VM46 human colon carcinoma cells; assay: In vitro cytotoxicity, XTT assay, multi-drug resistant line; format: cell-based; details: 72 h incubation, teniposide-selected, paclitaxel-resistant cells, Examples 1 and 4 as free acid, example 3 as sodium salt
[6] = tested on: M109 lung carcinoma; assay: Mice M109 model, intraperitoneal implant; format: in vivo; details: ip M109, ip injections, d. 5 + 9, median survival
Method: Balb/c x DBA/2 F1 hybrid mice were implanted intraperitoneally, as described by William Rose in Evaluation of Madison 109 Lung Carcinoma as a Model for Screening Antitumor Drugs, Cancer Treatment Reports, 65, No. 3-4 (1981), with 0.5 mL of a 2% (w/v) brei of M109 lung carcinoma.
Mice were treated with compound under study by receiving intraperitoneal injections of various doses on either days 1, 5 and 9 post-tumor implant or days 5 and 8 post-implant. Mice were followed daily for survival until approximately 75 -90 days post-tumor implant. One group of mice per experiment remained untreated and served as the control group. Median survival times of compound-treated (T) mice were compared to the median survial time of the control (C) mice. The ratio of the two values for each compound-treated group of mice was multiplied by 100 and expressed as a percentage (i.e. % T/C) in Table III for representative compounds of formula (B′).

[7] = another M109 experiment, iv, 48 or 36 mg/kg/inj.
[8] = one M109 experiment, iv, 36 or 18 mg/kg/inj.
[9] = sc M109, i.v. once daily days 5-9, opt. dose 18 mg/kg/inj
[10] = iv, 36 mg/kg/inj, Example 3 as triethanolamine salt
[11] = another M109 experiment, triethanolamine salt, iv, 48 mg/kg/inj.
[12] = another M109 experiment, triethanolamine salt, orally, 200 mg/kg/adm.
[13] = one M109 experiment, triethanolamine salt, iv in water, 36 mg/kg/inj.
[14] = one M109 experiment, triethanolamine salt, orally, 160 mg/kg/adm.

In the case of `CC(=O)O[C@H]1C(=O)[C@@]2(C)[C@H]([C@H](OC(=O)c3ccccc3)[C@]3(O)C[C@H](OC(=O)[C@H](O)[C@@H](NC(=O)c4ccccc4)c4ccccc4)C(C)=C1C3(C)C)[C@]1(OC(C)=O)CO[C@@H]1C[C@@H]2O` [paclitaxel, reference compound], the “activity in sc M109 model” value ([1]; another M109 experiment, dissolved in cremophore/ethanol/saline, 60/mg/kg/inj.) is reported as “did not show activity”, the T-C [1, 7] is reported as 14 days and the “max. % T/C” value [1, 7] is reported as 167%. The “activity in sc M109 model” value ([1]; one M109 experiment, 160 mg/kg/adm. (highest tested), suspended in water and Tween 80) was “did not show activity”, the T-C [1, 8] was 13 days and the “max. % T/C” value [1, 8] was 132%. For the same compound, the “Maximum Effect T-C” value ([1]; sc M109, i.v. once daily days 4-8, opt. dose 24 mg/kg/inj (lower dose gave maximum delay in tumor growth)) was 14 days, the “Maximum Effect % T/C” value ([1]; sc M109, i.v. once daily days 4-8, opt. dose 48 mg/kg/inj (higher dose gave maximum increase in lifespan)) was 134% and the “Maximum Effect % T/C” value [1, 9] was 151%. The “Maximum Effect T-C” value [1, 9] was 15 days, the “max. T-C” value [2, 10] was 26.3 days and the “cures (tumor-free on Day 80 post tumor implant)” value ([3]; iv, 24 mg/kg/inj., of 7 treated mice) was 6. For the same compound, the “cures (tumor-free on Day 80 post tumor implant)” value ([3]; iv, 36 mg/kg/inj., of 8 treated mice) was 6, the IC50 [4] was 0.004 µM and the IC50 [5] was 0.44 µM.

`CCOC(=O)O[C@@H](C(=O)O[C@H]1C[C@@]2(O)[C@@H](OC(=O)c3ccccc3)[C@@H]3[C@]4(OC(C)=O)CO[C@@H]4C[C@H](OCOP(=O)(O)O)[C@@]3(C)C(=O)[C@H](OC(C)=O)C(=C1C)C2(C)C)[C@@H](NC(=O)c1ccccc1)c1ccccc1` [Example 3, 2′-O-(ethoxycarbonyl)-7-O-phosphonooxymethylpaclitaxel] was tested, and the T-C [1, 11] was 17 days, the “max. % T/C” value [1, 11] was 170% and the T-C [1, 12] was 17 days. For the same compound, the “max. % T/C” value [1, 12] was 172%, the T-C [1, 13] was 19 days and the “max. % T/C” value [1, 13] was 155%. For the same compound, the T-C [1, 14] was 22.8 days, the “max. % T/C” value [1, 14] was 158% and the “Maximum Effect T-C” value ([1]; sc M109, sodium salt, i.v. once daily days 5-9, opt. dose 24 mg/kg/inj) was 18.8 days. For the same compound, the “Maximum Effect % T/C” value ([1]; sc M109, sodium salt, i.v. once daily days 5-9 post-tumor implant, opt. dose 24 mg/kg/inj) was 160%, the “max. T-C” value [2, 10] was 29.8 days and the “max. T-C” value ([2]; orally, 160 mg/kg/adm., triethanolamine salt) was 20 days. For the same compound, the “cures (tumor-free on Day 80 post tumor implant)” value ([3]; oral, 160 mg/kg/adm., triethanolamine salt, of 8 treated mice) was 6, the “cures (tumor-free on Day 80 post tumor implant)” value ([3]; oral, 240 mg/kg/adm., triethanolamine salt, of 8 treated mice) was 7 and the IC50 [4] was 0.312 µM. For the same compound, the IC50 [5] was 6.25 µM.

In the case of `CC(=O)O[C@@]12CO[C@@H]1C[C@H](O)[C@@]1(C)C(=O)[C@H](O)C3=C(C)[C@@H](OC(=O)[C@H](O)[C@@H](NC(=O)OC(C)(C)C)c4ccccc4)C[C@@](O)([C@@H](OC(=O)c4ccccc4)[C@H]21)C3(C)C` [Texotere ®, reference compound], the IC50 [4] is reported as 0.004 µM and the IC50 [5] is reported as 0.213 µM.

In the case of `CCOC(=O)O[C@@H](C(=O)O[C@H]1C[C@@]2(O)[C@@H](OC(=O)c3ccccc3)[C@@H]3[C@]4(OC(C)=O)CO[C@@H]4C[C@H](OCSC)[C@@]3(C)C(=O)[C@H](OC(C)=O)C(=C1C)C2(C)C)[C@@H](NC(=O)OC(C)(C)C)c1ccccc1` [Example 15, 3′-N-debenzoyl-3′-N-(t-butoxycarbonyl)-2′-O-ethyloxycarbonyl-7-O-methylthiomethylpaclitaxel], the “T/C (mg/kg/inj.; schedule in days)” value ([6]; 8 mg/kg/inj.) is reported as 192 (8; d. 5 + 9) %.

In the case of `CSCO[C@H]1C[C@H]2OC[C@@]2(OC(C)=O)[C@H]2[C@H](OC(=O)c3ccccc3)[C@]3(O)C[C@H](OC(=O)[C@H](O)[C@@H](NC(=O)OC(C)(C)C)c4ccccc4)C(C)=C([C@@H](OC(C)=O)C(=O)[C@]12C)C3(C)C` [14 (b), 3′-N-debenzoyl-3′-N-(t-butoxycarbonyl)-7-O-methylthiomethylpaclitaxel], the “T/C (mg/kg/inj.; schedule in days)” value ([6]; 12 mg/kg/inj.) is reported as 143 (12; d. 5 + 9) %.

Compound `CC(=O)O[C@H]1C(=O)[C@@]2(C)[C@H]([C@H](OC(=O)c3ccccc3)[C@]3(O)C[C@H](OC(=O)[C@H](OCOP(=O)(O)O)[C@@H](NC(=O)c4ccccc4)c4ccccc4)C(C)=C1C3(C)C)[C@]1(OC(C)=O)CO[C@@H]1C[C@@H]2O` [Example 4, 2′-O-(Phosphonooxymethyl)paclitaxel] has an IC50 [4] of 0.0457 µM and an IC50 [5] greater than 6.3 µM.

With `CSCO[C@H]1C[C@H]2OC[C@@]2(OC(C)=O)[C@H]2[C@H](OC(=O)c3ccccc3)[C@]3(O)C[C@H](OC(=O)[C@H](O)[C@@H](NC(=O)c4ccccc4)c4ccccc4)C(C)=C([C@@H](OC(C)=O)C(=O)[C@]12C)C3(C)C` [Example 1 (a), 7-O-methylthiomethylpaclitaxel] the IC50 [4] was 0.003 µM and the IC50 [5] was 0.025 µM.

With “7-O-phosphonooxymethylpaclitaxel [Example 1]” the “Maximum Effect T-C” value ([1]; sc M109, CDF1 mice, sodium salt, i.v. once daily days 4-8, opt. dose 45 mg/kg/inj, delay to 1 gm tumor) was 14.0 days, the “Maximum Effect % T/C” value ([1]; sc M109, CDF1 mice, sodium salt, i.v. once daily days 4-8 post-tumor implant, opt. dose 45 mg/kg/inj, median survival) was 131% and the “oral activity in the M109 model” value ([1]; triethanolamine salt, oral) was “oral activity”. The “oral activity in the HCT-116 model” value ([3]; triethanolamine salt, oral) was “oral activity”, the IC50 [4] was 0.0158 µM and the IC50 [5] was 1.24 µM.
